From patent US20120220594A1, “METHODS FOR TREATING CANCER IN PATIENTS HAVING IGF-1R INHIBITOR RESISTANCE” (Bristol-Meyers Squibb Company, priority 2009, published 2012)
Read-outs that look alike come from different tables or passages of the source.

How the values were obtained:
Rh41 cells = assay: 3H-thymidine incorporation cell proliferation assay in parental Rh41 cells; type: cell-based, human
Source text: (§1) Human rhabdomyosarcoma cell line Rh41 was provided by Dr. Lee Helman and grown in RPMI medium plus GLUTAMAX® supplemented with 10% fetal bovine serum (FBS), 10 mmol/L HEPES, penicillin, and streptomycin.

Rh41-807R cells = assay: 3H-thymidine incorporation cell proliferation assay in BMS-754807-resistant Rh41-807R cells; type: cell-based, human
Source text: as §1

Rh41-MAB391R cells = assay: 3H-thymidine incorporation cell proliferation assay in MAB391-resistant Rh41-MAB391R cells; type: cell-based, human; conditions: for IC50: read-out: IC50 (nM) Rh41-MAB391R
Source text: Human rhabdomyosarcoma cell line Rh41 was provided by Dr. Lee Helman and grown in RPMI medium plus GLUTAMAX® supplemented with 10% fetal bovine serum (FBS), 10 mmol/L HEPES, penicillin, and streptomycin. To develop acquired resistant cells to either BMS-754807, or mAB391 (R&D Systems, Inc., Minneapolis, Minn.), the sensitive Rh41 cells were exposed to the corresponding drug at the IC50 concentration and then at gradually increasing concentrations every other culture passage. The IC50 value to the compound was measured periodically during this treatment time until the resistance level reached a plateau.
(§2) Human rhabdomyosarcoma cell line Rh41 was chosen in this study to develop acquired resistance because it expresses IGF-1R (Huang et al., Cancer Res., 69(1):161-170 (Jan. 1, 2009)), the target of BMS-754807 and MAB391; and is sensitive to both drugs (Carboni et al., Proceedings of the 100th Annual Meeting of the American Association for Cancer Research, 2009 Apr. 18-22; Denver, Colo., Abstract No. 1742). The acquired-resistant Rh41-807R and Rh41-MAB391R cell lines were developed using a stepwise exposure to increasing concentrations of either IGF-1R/IR inhibitor BMS-754807 or IGF-1R antibody MAB391 for extended periods of time until a resistance plateau was reach. […];

Rh1 cells = assay: 3H-thymidine incorporation cell proliferation assay in Rh1 cells; type: cell-based; conditions: Homo sapiens, RH-1
Method: (§3) Cells were plated at an optimized density in 96-well plates, incubated overnight at 37° C., and then exposed to a serial dilution of the drugs. After 72 hours incubation, cells were pulsed with 4 μCi/ml [^3H]-thymidine (Amersham Pharmacia Biotech, UK) for 3 hours, trypsinized, harvested onto […] ®-96 GF/B plates (PerkinElmer, Boston, Mass.); scintillation was measured on a TOPCOUNTO NXT (Packard, Conn.). […] The mean IC50 and standard deviation from multiple tests for each cell line were calculated.

Rh1-807R cells = assay: 3H-thymidine incorporation cell proliferation assay in Rh1-807R cells; type: cell-based
Method: as §3

SW403 cells = assay: 3H-thymidine incorporation cell proliferation assay in SW403 cells; type: cell-based; conditions: Homo sapiens, SW-403
Method: as §3

SW403-807R cells = assay: 3H-thymidine incorporation cell proliferation assay in SW403-807R cells; type: cell-based
Method: as §3

Geo cells = assay: 3H-thymidine incorporation cell proliferation assay in Geo cells; type: cell-based
Method: as §3

GEO-807R cells = assay: 3H-thymidine incorporation cell proliferation assay in GEO-807R cells; type: cell-based
Method: as §3

Rh41-807Rout cells = assay: Cell proliferation assay in Rh41-807Rout cells (out of drug selection for 3 months); type: cell-based, human; conditions: out of drug selection for 3 months of passages
Source text: as §2

PDGFRα RNA in Rh41 cells = assay: Induction of PDGFRα expression in sensitive parental Rh41 cells (qRT-PCR); type: cell-based, human
Method: FIGS. 3A-F show expression pattern comparisons of selected genes/proteins that uniquely changed expression only in 807R or in MAB391R. […] Insert: PDGFR-α protein expression pattern as detected by western blot. […] Cells starved for 24 hr, then stimulated with or without 50 ng/ml PDGF ligand fro 5 min. Cells were lyzed and 30 ug of total protein was used for western blot analyses. […] Insert: AXL protein expression as detected by western blot. […] Cells treated with 10 nM and 50 nM of BMS-754807 for 1, 2, 4, 8 and 24 hrs. PDGFRα RNA levels were measured by qRT-PCR and compared to the untreated time 0 control.
Comparing genes expression profiles, the inventors found there were some key signaling pathways that were differentially expressed in Rh41-807R and Rh41-MAB391R cells. An interesting example was PDGFR-α, which had >89 fold increase in RNA expression in Rh41-807R cells but not in Rh41-MAB391R compared to the parental; and the induction of PDGFR-α was persistent even in cells out of BMS-754807 selection for 3 months (FIG. 3A). The expression pattern was also confirmed at protein levels (FIG. 3A); PDGFR-α was also constitutively activated in Rh41-807R cells (FIG. 3B). […] Other genes such as c-KIT, FGFR2 and EPHA3 had similar expression pattern as PDGFR-α (FIG. 3C). Several Eph receptor family members such as EPHA3, EPHA4 and EPHB2 as well as ligand EFNA3 were overexpressed in 807R.

Rh41 xenograft tumors = assay: In vivo xenograft tumor growth inhibition, Rh41; conditions: Rh41 xenograft tumors in nude mice
Method: (§4) Tumor volume was measured to assess tumor growth inhibition.

[1] = system: Rh41-807R xenograft tumors; assay: In vivo xenograft tumor growth inhibition, Rh41-807R; conditions: Rh41-807R xenograft tumors in nude mice
Method: as §4

MCF-7-807R cells = assay: 3H-thymidine incorporation cell proliferation assay in MCF-7-807R cells
Method: as §3

[2] = system: Rh41 cells with PDGFR-α knockdown; assay: Proliferation assay in Rh41 cells transfected with PDGFR-α specific siRNA; conditions: Rh41 sensitive parental cells
Method: (§5) RISC-free siRNA was transfected as the negative control (Dharmacon). Following the addition of the drugs, cells were incubated at 37° C. for 72 hours before cell growth was measured by incorporation of ^3H-thymidine as described for in vitro cellular proliferation assays.

[3] = system: Rh41-807R cells with PDGFR-α knockdown; assay: Proliferation assay in Rh41-807R cells transfected with PDGFR-α specific siRNA; conditions: Rh41-807R cells treated with PDGFR-α siRNA
Method: as §5

[4] = biological target: type I-IGF receptor (IGF-1R), as expressed by human rhabdomyosarcoma Rh41 cells and the derived resistant lines (human) (UniProt P08069); assay: cell-based or functional assay
type I-IGF receptor (IGF-1R), as expressed by human rhabdomyosarcoma Rh41 cells and the derived resistant lines (human), sequence (P08069 31-1367, change not shown): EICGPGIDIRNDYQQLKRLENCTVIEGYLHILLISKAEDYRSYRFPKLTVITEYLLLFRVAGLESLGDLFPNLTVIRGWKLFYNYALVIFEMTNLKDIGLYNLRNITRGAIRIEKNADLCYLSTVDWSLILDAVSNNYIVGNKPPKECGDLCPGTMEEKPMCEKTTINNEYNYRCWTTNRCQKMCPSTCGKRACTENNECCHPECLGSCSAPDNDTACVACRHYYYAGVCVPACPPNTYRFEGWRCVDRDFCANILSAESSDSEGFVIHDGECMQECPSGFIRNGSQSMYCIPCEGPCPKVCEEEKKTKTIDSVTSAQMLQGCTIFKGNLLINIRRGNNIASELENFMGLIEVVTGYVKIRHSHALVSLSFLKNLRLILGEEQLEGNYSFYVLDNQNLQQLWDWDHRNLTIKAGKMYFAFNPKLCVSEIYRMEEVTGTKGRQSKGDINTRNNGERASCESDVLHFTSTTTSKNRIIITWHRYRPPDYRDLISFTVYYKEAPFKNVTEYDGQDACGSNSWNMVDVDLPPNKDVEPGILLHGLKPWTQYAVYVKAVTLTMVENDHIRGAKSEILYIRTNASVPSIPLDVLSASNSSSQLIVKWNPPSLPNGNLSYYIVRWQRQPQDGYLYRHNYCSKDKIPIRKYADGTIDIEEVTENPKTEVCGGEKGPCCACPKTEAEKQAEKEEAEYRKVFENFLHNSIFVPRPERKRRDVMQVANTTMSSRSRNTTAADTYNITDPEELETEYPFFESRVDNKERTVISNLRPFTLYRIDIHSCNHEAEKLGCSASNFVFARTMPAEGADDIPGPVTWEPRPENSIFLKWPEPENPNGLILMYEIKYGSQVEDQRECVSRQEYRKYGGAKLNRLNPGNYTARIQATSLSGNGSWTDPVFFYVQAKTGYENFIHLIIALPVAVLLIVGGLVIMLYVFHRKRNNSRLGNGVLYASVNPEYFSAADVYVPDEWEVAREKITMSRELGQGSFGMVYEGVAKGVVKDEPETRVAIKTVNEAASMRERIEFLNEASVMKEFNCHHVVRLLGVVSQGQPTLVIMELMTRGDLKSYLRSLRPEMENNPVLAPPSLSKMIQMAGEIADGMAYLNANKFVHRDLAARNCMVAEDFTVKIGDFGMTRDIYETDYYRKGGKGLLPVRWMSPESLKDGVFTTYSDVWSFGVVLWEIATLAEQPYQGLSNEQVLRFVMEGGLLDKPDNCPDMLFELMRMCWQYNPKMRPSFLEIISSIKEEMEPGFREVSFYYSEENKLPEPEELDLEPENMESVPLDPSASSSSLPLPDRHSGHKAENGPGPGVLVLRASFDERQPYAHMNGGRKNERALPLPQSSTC

[5] = Homo sapiens, Rh41 cells, PDGFR inhibitors, Table 7, read-out: Rh41 IC50
[6] = Homo sapiens, Rh41-807R cells, PDGFR inhibitors, Table 7, read-out: Rh41-807R IC50
[7] = Homo sapiens, Rh41 cells, cytotoxic agents and mTOR inhibitor, Table 2, read-out: Rh41 IC50
[8] = Homo sapiens, Rh41-807R cells, cytotoxic agents and mTOR inhibitor, Table 2, read-out: Rh41-807R IC50
[9] = cytotoxic agents and mTOR inhibitor

## CN1CCN(c2ccc3nc(-c4c(N)c5c(F)cccc5[nH]c4=O)[nH]c3c2)CC1 [Dovitinib]
Rh41 cells; [5]
  IC50: 6456 ± 60 nM
Rh41-807R cells; [6]
  IC50: 722 ± 264 nM

## C[C@@]1(C(=O)Nc2ccc(F)nc2)CCCN1c1nc(Nc2cc(C3CC3)[nH]n2)c2cccn2n1 [BMS-754807, (2S)-1-(4-((5-cyclopropyl-1H-pyrazol-3-yl)amino)pyrrolo[2,1-f][1,2,4]triazin-2-yl)-N-(6-fluoro-3-pyridinyl)-2-methyl-2-pyrrolidinecarboxamide]
Rh41 cells; Homo sapiens, Rh41, read-out: IC50 (nM) Rh41
  IC50: 5 nM
Rh41 cells; Homo sapiens, Rh41, read-out: IGF-1R inhibitor Compound (IC50)
  IC50: 5 nM
Rh41 cells; Homo sapiens, Rh41, read-out: Parental IC50 (nM)
  IC50: 5 nM
Rh41-807R cells; Homo sapiens, Rh41
  IC50: 811 nM
Rh41-807R cells; Homo sapiens, read-out: IC50 (nM) Rh41-807R
  IC50: 811 nM
Rh41-807R cells; Homo sapiens, read-out: IGF-1R inhibitor Compound (IC50)
  IC50: 811 nM
Rh41-807R cells; fold change in IC50, resistant vs parental Rh41 cells
  Relative resistance: 162X
Rh41-MAB391R cells; Homo sapiens
  IC50: 27 nM
Rh41-MAB391R cells; growth inhibited to a comparable level as the parental cells
  activity in the Rh41-MAB391R model: relatively active
Rh1 cells; Rh1 cells, Table 9, read-out: IGF-1R inhibitor Compound (IC50)
  IC50: 27 nM
Rh1 cells; Rh1 parental cells, Table 8, read-out: Parental IC50
  IC50: 27 nM
Rh1-807R cells; Homo sapiens, RH-1, BMS-754807-resistant Rh1 cells, maintenance conc. 120, Table 8, read-out: IC50
  IC50: 1800 nM
Rh1-807R cells; Rh1-807R cells, Table 9, read-out: IGF-1R inhibitor Compound (IC50)
  IC50: 1800 ± 1390 nM
Rh1-807R cells; fold change in IC50, resistant vs parental Rh1 cells
  Relative resistance: 66.5X
SW403 cells; SW403 cells, Table 9, read-out: IGF-1R inhibitor Compound (IC50)
  IC50: 220 nM
SW403 cells; SW403 parental cells, Table 8, read-out: Parental IC50
  IC50: 220 nM
SW403-807R cells; Homo sapiens, SW-403, BMS-754807-resistant SW403 cells, maintenance conc. 500, Table 8, read-out: IC50
  IC50: 979 nM
SW403-807R cells; SW403-807R cells, Table 9, read-out: IGF-1R inhibitor Compound (IC50)
  IC50: 979 ± 528 nM
SW403-807R cells; fold change in IC50, resistant vs parental SW403 cells
  Relative resistance: 4.5X
Geo cells; Geo cells, Table 9, read-out: IGF-1R inhibitor Compound (IC50)
  IC50: 350 nM
Geo cells; Geo parental cells, Table 8, read-out: Parental IC50
  IC50: 350 nM
GEO-807R cells; BMS-754807-resistant Geo cells, maintenance conc. 2000, Table 8, read-out: IC50
  IC50: 1230 nM
GEO-807R cells; GEO-807R cells, Table 9, read-out: IGF-1R inhibitor Compound (IC50)
  IC50: 1230 ± 251 nM
GEO-807R cells; fold change in IC50, resistant vs parental Geo cells
  Relative resistance: 3.5X
Rh41-807Rout cells
  resistance of Rh41-807Rout: significant level of resistance
PDGFRα RNA in Rh41 cells; Rh41 cells
  time at which induction of PDGFRα RNA was seen after treatment: 4 h
PDGFRα RNA in Rh41 cells; Rh41 sensitive parental cells, 10 nM and 50 nM
  induction of PDGFR-α expression: dose-dependent
Rh41 xenograft tumors
  tumor growth inhibition (TGI): 73%
[1]
  tumor growth inhibition (TGI): 35%
MCF-7-807R cells; Homo sapiens, MCF7
  IC50: 735 nM
MCF-7-807R cells; fold change in IC50, resistant vs parental MCF-7 cells
  Relative resistance: 46X
MCF-7-807R cells; read-out: IGF-1R inhibitor Compound (IC50)
  IC50: 972 ± 400 nM
[2]
  sensitivity between untransfected, control siRNA and PDGFR-α-specific siRNA transfected cells: no significant differences in the sensitivity
[3]
  response to growth inhibition after PDGFR-α siRNA: sensitive to growth inhibition

## MAB391 (R&D Systems), IGF-1R neutralizing antibody
[4]
  IC50 (nM), growth inhibition of Rh41-807R cells, 3H-thymidine incorporation, 72 h: > 2000 nM
  IC50 (nM), growth inhibition of Rh41-MAB391R cells, 3H-thymidine incorporation, 72 h: > 2000 nM
  IC50 (nM), growth inhibition of Rh41 parental cells, 3H-thymidine incorporation, 72 h: 0.1 nM

## CC(=O)O[C@@]12CO[C@@H]1C[C@H](O)[C@@]1(C)C(=O)[C@H](O)C3=C(C)[C@@H](OC(=O)[C@H](O)[C@@H](NC(=O)OC(C)(C)C)c4ccccc4)C[C@@](O)([C@@H](OC(=O)c4ccccc4)[C@H]21)C3(C)C [Taxotere]
Rh41 cells; [7]
  IC50: 0.5 nM
Rh41-807R cells; [8]
  IC50: 0.5 nM

## CC(=O)O[C@H]1C(=O)[C@@]2(C)[C@H]([C@H](OC(=O)c3ccccc3)[C@]3(O)C[C@H](OC(=O)[C@H](O)[C@@H](NC(=O)c4ccccc4)c4ccccc4)C(C)=C1C3(C)C)[C@]1(OC(C)=O)CO[C@@H]1C[C@@H]2O [TAXOL ®, paclitaxel]
Rh41 cells; [7]
  IC50: 2.1 ± 0.4 nM
Rh41-807R cells; [8]
  IC50: 1.8 ± 0.3 nM
Rh41-807R cells; [9]
  sensitivity of Rh41-807R compared with the parental line: very similar level of sensitivity as the parental line

## CNC(=O)c1cc(Oc2ccc(NC(=O)Nc3ccc(Cl)c(C(F)(F)F)c3)cc2)ccn1 [Sorafenib]
Rh41 cells; [5]
  IC50: > 2000 nM
Rh41-807R cells; [6]
  IC50: 804 ± 210 nM

## C/C(=C\c1csc(C)n1)[C@@H]1C[C@@H]2O[C@]2(C)CCC[C@H](C)[C@H](O)[C@@H](C)C(=O)C(C)(C)[C@@H](O)CC(=O)N1 [Ixabepilone]
Rh41 cells; [7]
  IC50: 4 nM
Rh41-807R cells; [8]
  IC50: 3.4 ± 0.4 nM

## Cc1cc(N2CCOCC2)cc2[nH]c(-c3c(NC[C@@H](O)c4cccc(Cl)c4)cc[nH]c3=O)nc12 [BMS-536924]
Rh41 cells; Rh41 parental cells, 72 h, 3H-thymidine incorporation, Table 1, read-out: IC50 (nM) Rh41
  IC50: 31 nM
Rh41-807R cells; Rh41-807R cells, 72 h, 3H-thymidine incorporation, Table 1, read-out: IC50 (nM) Rh41-807R
  IC50: > 1000 nM
Rh41-MAB391R cells; Rh41-MAB391R cells, 72 h, 3H-thymidine incorporation, Table 1
  IC50: 90.2 ± 2.2 nM

## CO[C@H]1C[C@@H]2CC[C@@H](C)[C@@](O)(O2)C(=O)C(=O)N2CCCC[C@H]2C(=O)O[C@H]([C@H](C)C[C@@H]2CC[C@@H](O)[C@H](OC)C2)CC(=O)[C@H](C)/C=C(\C)[C@@H](O)[C@@H](OC)C(=O)[C@H](C)C[C@H](C)/C=C/C=C/C=C/1C [Rapamycin]
Rh41 cells; [7]
  IC50: < 0.32 nM
Rh41-807R cells; [8]
  IC50: < 0.32 nM

## CCN(CC)CCNC(=O)c1c(C)[nH]c(/C=C2\C(=O)Nc3ccc(F)cc32)c1C [Sunitinib]
Rh41 cells; [5]
  IC50: 1400 ± 634 nM
Rh41-807R cells; [6]
  IC50: 1020 ± 321 nM

## Nc1ccn([C@@H]2O[C@H](CO)[C@@H](O)C2(F)F)c(=O)n1 [Gemcitabine]
Rh41 cells; [7]
  IC50: 1.1 ± 0.4 nM
Rh41-807R cells; [8]
  IC50: 3 nM
Rh41-807R cells; [9]
  sensitivity of Rh41-807R compared with the parental line: very similar level of sensitivity as the parental line

## CC[C@]12C=CCN3CC[C@@]4(c5cc([C@@]6(C(=O)OC)C[C@@H]7C[C@@H](C(C)(F)F)CN(Cc8c6[nH]c6ccccc86)C7)c(OC)cc5N(C)[C@H]4[C@@](O)(C(=O)OC)[C@@H]1OC(C)=O)[C@@H]32 [Vinflunine]
Rh41 cells; Homo sapiens, Rh41, read-out: Rh41 IC50 (nM)
  IC50: 28 ± 2.8 nM
Rh41-807R cells; Homo sapiens, read-out: Rh41-807R IC50 (nM)
  IC50: 21 ± 3 nM
